# “Also recorded” adds a separate entry of the source. Marks after values point to notes of the source that are not given here.
# System: patients with moderate to severe atopic dermatitis having normal eosinophil levels
# Experiment: Post hoc stratification of the phase II study by eosinophil level (normal <0.3×10^9/L)
# Type: in vivo, human
# Conditions: for Percentage Change of BSA Levels From Baseline, Mean / Percentage Change of DLQI Scores From Baseline, Mean / Percentage Change of EASI Scores From Baseline, Mean / Percentage Change of IGA Scores From Baseline, Mean / Percentage Change of POEM Scores From Baseline, Mean / Percentage Change of SCORAD Levels From Baseline, Mean / Percentage Change of VAS Scores From Baseline, Mean: Normal Eosinophil Population
# Protocol: Further to the randomized, double-blind, placebo-controlled, phase II study of Example 2 above, a post hoc stratification analysis was performed using the results of that study to assess the efficacy of orally administered DS107G (DGLA) to patients with moderate to severe atopic dermatitis having normal eosinophil levels of less than about 0.3×10^9/L compared to the same population receiving placebo and/or to the total study population. The primary objective of the post hoc stratification study was to compare the efficacy of orally administered DS107G capsules, versus placebo, in the treatment of adult patients with moderate to severe atopic dermatitis having normal eosinophil levels of less than about 0.3×10^9/L. The secondary objective was to compare the efficacy of orally administered DS107G capsules in the treatment of adult patients with moderate to severe atopic dermatitis having normal eosinophil levels of less than about 0.3×10^9/L versus the total study population. Unless stated otherwise, all elements of the post hoc stratification analysis were the same as those of the phase II study described in Example 2 above.
# [1] = Normal Eosinophil < 0.3 × 10^9/L, daily, 8 weeks
# [2] = Normal Eosinophil < 0.3 × 10^9/L, daily, 8 weeks, LOCF
# [3] = normal eosinophil levels, weeks 2, 4, 6, 8 and 10, vs placebo or total study population
# [4] = patients having normal eosinophil levels
# [5] = study population having normal eosinophil levels, oral, once daily, 8 weeks
structure (smiles),measurement,setting,value
"CCCCC/C=C\C/C=C\C/C=C\CCCCCCC(=O)O [DS107G, Dihomo gamma linolenic acid]",EASI-50 (%),[1],60%
same,EASI-75 (%),[1],40%
same,BSA Change from Baseline,[2],−41% *
same,EASI Percentage Change from Baseline,[2],−51% *
same,IGA responder (%),[2],42% *
same,Pruritus Percentage Change from Baseline,[2],−53% *
same,"Percentage Change of BSA Levels From Baseline, Mean",Week 2,−10.8%
same,"Percentage Change of DLQI Scores From Baseline, Mean",Week 2,−41.3%
same,"Percentage Change of EASI Scores From Baseline, Mean",Week 2,−20.7%
same,"Percentage Change of IGA Scores From Baseline, Mean",Week 2,−15.1%
same,"Percentage Change of POEM Scores From Baseline, Mean",Week 2,−41.8%
same,"Percentage Change of SCORAD Levels From Baseline, Mean",Week 2,−16.5%
same,"Percentage Change of VAS Scores From Baseline, Mean",Week 2,−29.8%
same,"Percentage Change of BSA Levels From Baseline, Mean",Week 4,−21.2%
same,"Percentage Change of DLQI Scores From Baseline, Mean",Week 4,−58.2%
same,"Percentage Change of EASI Scores From Baseline, Mean",Week 4,−41.9%
same,"Percentage Change of IGA Scores From Baseline, Mean",Week 4,−28.8%
same,"Percentage Change of POEM Scores From Baseline, Mean",Week 4,−55.3%
same,"Percentage Change of SCORAD Levels From Baseline, Mean",Week 4,−34.8%
same,"Percentage Change of VAS Scores From Baseline, Mean",Week 4,−50.9%
same,"Percentage Change of BSA Levels From Baseline, Mean",Week 8,−41.0%
same,"Percentage Change of DLQI Scores From Baseline, Mean",Week 8,−57.5%
same,"Percentage Change of EASI Scores From Baseline, Mean",Week 8,−51.1%
same,"Percentage Change of IGA Scores From Baseline, Mean",Week 8,−42.6%
same,"Percentage Change of POEM Scores From Baseline, Mean",Week 8,−53.1%
same,"Percentage Change of SCORAD Levels From Baseline, Mean",Week 8,−44.3%
same,"Percentage Change of VAS Scores From Baseline, Mean",Week 8,−52.7%
same,"Percentage Change of BSA Levels From Baseline, Mean",Week 10,−49.7%
same,"Percentage Change of DLQI Scores From Baseline, Mean",Week 10,−61.6%
same,"Percentage Change of EASI Scores From Baseline, Mean",Week 10,−59.6%
same,"Percentage Change of IGA Scores From Baseline, Mean",Week 10,−46.2%
same,"Percentage Change of POEM Scores From Baseline, Mean",Week 10,−50.1%
same,"Percentage Change of SCORAD Levels From Baseline, Mean",Week 10,−47.1%
same,"Percentage Change of VAS Scores From Baseline, Mean",Week 10,−47.7%
same,effect in patients having normal eosinophil levels compared to placebo or the total study population,in vivo,greater effect; also recorded: higher response rate
same,change in BSA levels relative to baseline,[3],greater change
same,change in DLQI levels relative to baseline,[3],greater change
same,change in EASI scores relative to baseline,[3],greater change
same,change in IGA scores relative to baseline,[3],greater change
same,change in POEM scores relative to baseline,[3],greater change
same,change in SCORAD levels relative to baseline,[3],greater change
same,change in VAS scores relative to baseline,[3],greater change
same,IGA responder rate,patients having high eosinophil levels (greater than about 0.3×10^9/L),0%
same,EASI scoring: patients classified as responders,[4],51%
same,"IGA responders (IGA 0 or 1 at Week 8, 2-point decrease)",[4],42%
same,Pruritus scores (VAS): patients classified as responders,[4],53%
same,pruritus reduction,[4],53%
same,EASI (% decrease),[5],51%
same,IGA responders (%),[5],42%
same,Pruritus delta (as measured by VAS),[5],53%
same,Pruritus score decrease (as measured by VAS),[5],c. (2.0)
same,SCORAD (% decrease),[5],44%

# Reference: patent US20180333382A1, “PHARMACEUTICAL COMPOSITIONS COMPRISING DGLA AND USE OF SAME” (DS Biopharma Limited, priority 2017, published 2018)
